Results as given in patent US8383679B2, “Crystal form of calcium 3-acetylaminopropane-1-sulfonate” (Merck Patent Gesellschaft mit beschränkter Haftung, priority 2008, dated 2013).

Tests used:
[1] = Suspension-conversion experiments; format: physicochemical; settings: suspension of crystals
Source text: Suitable suspension media are solvents in which the active compound is soluble, where the active compound is employed in a weight ratio in relation to the respective solvent in the suspension in which the solubility limit of the active compound in the solvent is exceeded, so that the active compound is predominantly in the form of a solid in the suspension. Suitable suspension media are, for example, water, methanol and/or tetrahydrofuran (THE), where water is particularly preferred.

[2] = Enthalpy of solution, 2225 Thermometrics Solution calorimeter; format: physicochemical

Compound	conversion of crystal form in suspension [1]	enthalpy of solution ([2]; in water at 25° C.) [J/g]	thermodynamic stability (free Gibbs enthalpy) relative to the other crystal form ([2]; concluded from enthalpies of solution)	difference in enthalpy of solution between form II and form I ([2]; in water at 25° C.) [J/g]
CC(=O)NCCCS(=O)(=O)O [form I, calcium 3-acetylaminopropane-1-sulfonate]	rearrangement to crystal form II	-23.1 ± 0.2	–	–
CC(=O)NCCCS(=O)(=O)O [form II, calcium 3-acetylaminopropane-1-sulfonate]	–	16.2 ± 0.2	thermodynamically more stable than form I	6.9 ± 0.4
